Source: patent publication US20230287021A1, “COMPOUNDS, COMPOSITIONS AND METHODS FOR STABILIZING TRANSTHYRETIN AND INHIBITING TRANSTHYRETIN MISFOLDING” (Protego Biopharma, Inc., priority 2020, published 2023)

How the values were obtained:
[1] = In vitro rat plasma stability assay, formation of tafamidis; format: in vitro ADME; settings: 37° C., 2 µM test compound
Procedure, shortened: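 Compound at 2 µM incubated in rat plasma at 37 °C, sampled at 0, 10, 30, 60, 120 min or 0, 60, 120, 180, 240 min. Protein precipitated, supernatant analyzed by LC-MS/MS, and percentage formation of tafamidis calculated per time point.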

[2] = In vitro rat liver S9 stability assay, formation of tafamidis; format: in vitro ADME; settings: rat liver S9, 37° C., 1 µM test compound
Experimental: The test compound was added to liver S9 and incubated at 37° C. in a water bath at a concentration of 1 µM. At each time point (0, 5, 10, 20, 30 and 60 min), stop solution (tolbutamide plus labetalol) was added to precipitate protein and mixed thoroughly. After centrifugation, an aliquot of supernatant was analyzed by LC-MS/MS. The percentage of formation of active agent was calculated at each time point.

[3] = In vivo rat PK: tafamidis in plasma, CSF and brain; parameters: species or system Male Sprague-Dawley (SD) rats; settings: for Tafamidis CSF/Plasma Ratio over 24 hrs (po): po administration of test compound
From the text: For a compound provided herein to be an effective TTR stabilizer drug to halt and/or prevent the ocular and cerebral TTR amyloid deposition TTR amyloidosis, it has to be able to penetrate into the brain and CSF (surrogate for eye penetration) and deliver a sufficient amount of TTR stabilizer to stop TTR dissociation. A pharmacokinetic study in rat was used to evaluate the compounds. Male Sprague-Dawley (SD) rats (200-220 g weight) were acclimated for at least 2 to 3 days before being placed on study. All animals had access to certified rodent diet and water at libitum. Appropriate amount of the test compound was accurately weighed and mixed with appropriate volume of vehicle (such as DMSO/sterile water for iv dosing or 0.5% methylcellulose homogenous suspension or solution for oral administration or as a solution in a mixture NMP/PEG400/solutol/water) to administer a dose of 2, 5 or 10 mg/kg. For IV dosing the test compound was administered via tail vein or indwelling cannula. For oral dosing, the test compound was administered by oral gavage. Blood and CSF samples were collected at selected timepoints. Blood collection was performed from saphenous vein or tail vein of each animal into polypropylene tubes at each timepoint. All blood samples were transferred into EDTA-K2 tubes and centrifuged for 15 minutes at 4° C. for plasma collection. Plasma samples were kept at -80° C. until LC/MSMS analysis. CSF was collected from cisterna magna at each timepoint and quick frozen over dry ice and kept at -80° C. until LC/MSMS analysis. Brains were harvested immediately after the terminal bleeding (~ 24 hrs post dosing). The blood of the brain was perfused with normal saline. The brain was quickly picked and placed into centrifuge tube. The weight of brain samples was recorded. 4-Fold homogenization solution (MeOH/15 mM PBS (1:2)) was added into the tube according to the weighed samples. The brain was homogenized using a Polytron (3 strokes or more until homogenous, each 30 seconds) on wet ice. The samples were quick frozen over dry ice and kept at -80° C. until LC/MSMS analysis. Using a LC-MSMS method for the quantitative determination of test compound in biological matrixes, amount of test compound and active agent were measured in plasma and CSF at selected timepoints post-dosing and in brain at 24 hrs post dosing. Plasma concentration versus time data was analyzed by non-compartmental approaches using the Phoenix WinNonlin 6.3 software program. As reference, an oral dose of 2 mg/kg of tafamidis gave a CSF to plasma ratio over 24 hrs around 0.01 and a brain to plasma ratio at 24 hrs around 0.02.

[4] = tafamidis-treated FAP patients, cited from earlier work

| SMILES | Formation of tafamidis at 120 min [1] | Formation of tafamidis at 60 min [2] | Tafamidis CSF/Plasma Ratio over 24 hrs (po) [3] | Kp ([3]; male, Sprague-Dawley, CSF and plasma, oral dose of 2 mg/kg of tafamidis, reference, read-out: CSF to plasma ratio over 24 hrs) | Kp at 24 h ([3]; male, Sprague-Dawley, brain and plasma, oral dose of 2 mg/kg of tafamidis, reference, read-out: brain to plasma ratio at 24 hrs) | tafamidis level in CSF relative to that in plasma ([4]; CSF) [%] | tafamidis/TTR stoichiometric ratio in plasma ([4]; plasma) | tafamidis/TTR stoichiometric ratio in vitreous and CSF ([4]; vitreous and CSF) | tafamidis level in vitreous relative to that in plasma ([4]; vitreous) [%] |
| --- | --- | --- | --- | --- | --- | --- | --- | --- | --- |
| O=C(OCCc1ncc[nH]1)c1ccc2nc(-c3cc(Cl)cc(Cl)c3)oc2c1 [Compound 153] | B (B is ≥25 to <50%) | B (B is ≥25 to <50%) | B (B is ≥0.015 to <0.02) | – | – | – | – | – | – |
| O=C(OC1CCn2cncc21)c1ccc2nc(-c3cc(Cl)cc(Cl)c3)oc2c1 (stereo not drawn) [Compound 156, 6,7-dihydro-5H-pyrrolo[1,2-c]imidazol-7-yl 2-(3,5-dichlorophenyl)-benzo[d]oxazole-6-carboxylate] | D (D is ≥75%) | C (C is ≥50 to <75%) | B (B is ≥0.015 to <0.02) | – | – | – | – | – | – |
| CC(OC(=O)c1ccc2nc(-c3cc(Cl)cc(Cl)c3)oc2c1)c1ccn(C)n1 (stereo not drawn) [Compound 160] | C (C is ≥50 to <75%) | C (C is ≥50 to <75%) | A (A is < 0.015) | – | – | – | – | – | – |
| CC(OC(=O)c1ccc2nc(-c3cc(Cl)cc(Cl)c3)oc2c1)C1CCOC1 (stereo not drawn) [Compound 161] | B (B is ≥25 to <50%) | B (B is ≥25 to <50%) | A (A is < 0.015) | – | – | – | – | – | – |

The next lines start with results.

| Formation of tafamidis at 120 min [1] | Formation of tafamidis at 60 min [2] | Tafamidis CSF/Plasma Ratio over 24 hrs (po) [3] | Kp ([3]; male, Sprague-Dawley, CSF and plasma, oral dose of 2 mg/kg of tafamidis, reference, read-out: CSF to plasma ratio over 24 hrs) | Kp at 24 h ([3]; male, Sprague-Dawley, brain and plasma, oral dose of 2 mg/kg of tafamidis, reference, read-out: brain to plasma ratio at 24 hrs) | SMILES | tafamidis level in CSF relative to that in plasma ([4]; CSF) [%] | tafamidis/TTR stoichiometric ratio in plasma ([4]; plasma) | tafamidis/TTR stoichiometric ratio in vitreous and CSF ([4]; vitreous and CSF) | tafamidis level in vitreous relative to that in plasma ([4]; vitreous) [%] |
| --- | --- | --- | --- | --- | --- | --- | --- | --- | --- |
| C (C is ≥50 to <75%) | B (B is ≥25 to <50%) | A (A is < 0.015) | – | – | CCN1CCCC(OC(=O)c2ccc3nc(-c4cc(Cl)cc(Cl)c4)oc3c2)C1 (stereo not drawn) [Compound 163] | – | – | – | – |
| C (C is ≥50 to <75%) | C (C is ≥50 to <75%) | A (A is < 0.015) | – | – | O=C(OC1CCCN(CC(F)F)C1)c1ccc2nc(-c3cc(Cl)cc(Cl)c3)oc2c1 (stereo not drawn) [Compound 167, 1-(2,2-difluoroethyl)piperidin-3-yl 2-(3,5-dichlorophenyl)benzo[d]oxazole-6-carboxylate] | – | – | – | – |
| B (B is ≥25 to <50%) | B (B is ≥25 to <50%) | A (A is < 0.015) | – | – | CC(Cn1ccnc1)OC(=O)c1ccc2nc(-c3cc(Cl)cc(Cl)c3)oc2c1 (stereo not drawn) [Compound 170] | – | – | – | – |
| – | – | – | ~0.01 | ~0.02 | O=C(O)c1ccc2nc(-c3cc(Cl)cc(Cl)c3)oc2c1 [tafamidis] | 2 | 2.4 | ≤ 1 | 0.5 |
